Experimental data reported in patent US9469615B2, “Quinoxalines and AZA-quinoxalines as CRTH2 receptor modulators” (Merck Sharp & Dohme Corp., priority 2010, dated 2016).

These molecules were tested against T1, hCRTH2 (Homo sapiens, UniProt Q9Y5Y4) (assay: Radioligand binding assay ([3H]PGD2 competition, HEK-hCRTH2 membranes)). Conditions: [3H]PGD2 binding, rated A-E (Table A).
T1 construct: expressed in transfected cells; host or cells: HEK (human embryonic kidney) cells expressing hCRTH2; membrane preparation
T1 sequence (Q9Y5Y4 1-395): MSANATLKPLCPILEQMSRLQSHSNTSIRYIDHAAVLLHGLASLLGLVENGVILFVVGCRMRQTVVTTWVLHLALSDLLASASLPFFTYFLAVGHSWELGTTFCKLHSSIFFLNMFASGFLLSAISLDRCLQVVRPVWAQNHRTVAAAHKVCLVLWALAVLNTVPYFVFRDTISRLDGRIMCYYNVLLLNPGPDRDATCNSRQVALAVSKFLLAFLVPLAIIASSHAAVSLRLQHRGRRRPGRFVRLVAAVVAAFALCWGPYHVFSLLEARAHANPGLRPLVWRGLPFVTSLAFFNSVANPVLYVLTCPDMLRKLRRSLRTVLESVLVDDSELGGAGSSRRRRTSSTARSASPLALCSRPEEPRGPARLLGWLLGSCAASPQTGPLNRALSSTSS
Procedure, shortened: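 Filter-bound radioactivity was counted by scintillation after 60 min incubations at room temperature. Membranes (8-20 μg) from HEK cells expressing hCRTH2 competed test ligands against 3.0 nM [3H]PGD2 in Tris-HCl pH 7.4 buffer with EDTA and 2 mM MnCl2; 10 μM PGD2 set non-specific binding.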

Ki [nM] | SMILES
0.1 to 2 | Cc1ccc(CNC(=O)c2ccc3nc(-c4ccc(Cl)cc4)c(CCCCC(=O)O)nc3c2)cc1 [16AQ, 3-(4-chlorophenyl)-7-[[[(4-methylphenyl)methyl]amino]carbonyl]-2-quinoxalinepentanoic acid]
0.1 to 2 | COc1cc(C(F)(F)F)ccc1-c1nc2ccc(C(=O)N3CCC(c4ccccc4)CC3)cc2nc1CCCCC(=O)O [26V, 3-[2-methoxy-4-(trifluoromethyl)phenyl]-7-[(4-phenyl-1-piperidinyl)carbonyl]-2-quinoxalinepentanoic acid]
2.1 to 20 | Cc1ccc([C@H](C)NC(=O)c2ccc3nc(-c4ccccc4)c(CCCCC(=O)O)nc3c2)cc1 [15BC, 5-(7-{[(1S)-1-(4-methylphenyl)ethyl]carbamoyl}-3-phenylquinoxalin-2-yl)pentanoic acid]
2.1 to 20 | COCCn1c(=O)n(C2CCN(C(=O)c3ccc4nc(-c5ccccc5)c(CCCCC(=O)O)nc4c3)CC2)c2ccccc21 [compound 113, 7-[[4-[2,3-dihydro-3-(2-methoxyethyl)-2-oxo-1H-benzimidazol-1-yl]-1 - piperidinyl]carbonyl]-3-phenyl-2-quinoxalinepentanoic acid]
0.1 to 2 | O=C(O)CCCOc1nc2cc(C(=O)NCc3ccc(Cl)cc3)ccc2nc1-c1ccccc1 [10C, 4-({7-[(4-chlorobenzyl)carbamoyl]-3-phenylquinoxalin-2-yl}oxy)butanoic acid]
2.1 to 20 | O=C(O)CCCNc1nc2cc(C(=O)N[C@@H]3CCCc4cc(F)ccc43)ccc2nc1-c1ccccc1 [44E, (R)-4-((7-((6-fluoro-1,2,3,4-tetrahydronaphthalen-1-yl)carbamoyl)-3-phenylquinoxalin-2-yl)amino)butanoic acid]
0.1 to 2 | O=C(O)CCCCc1nc2cc(C(=O)N3CCN(c4ccc(F)cc4)CC3)ccc2nc1-c1ccc(Cl)cc1 [compound 189, 3-(4-chlorophenyl)-7-[[4-(4-fluorophenyl)-1-piperazinyl]carbonyl]-2-quinoxalinepentanoic acid]
2.1 to 20 | O=C(O)CCCCc1nc2cc(C(=O)N3CCC(c4ccccc4)C3)ccc2nc1-c1ccc(F)cc1F (centres unmarked) [26H, 3-(2,4-difluorophenyl)-7-[(3-phenyl-1-pyrrolidinyl)carbonyl]-2-quinoxalinepentanoic acid]
2.1 to 20 | Cn1cc(-c2nc3ccc(C(=O)N4CCC(c5ccccc5)CC4)cc3nc2CCCCC(=O)O)cn1 [26T, 3-(1-methyl-1H-pyrazol-4-yl)-7-[(4-phenyl-1-piperidinyl)carbonyl]-2-quinoxalinepentanoic acid]
2.1 to 20 | CC(NC(=O)c1ccc2nc(-c3ccc(C(F)(F)F)cc3)c(CCCCC(=O)O)nc2c1)c1ccncc1 (centres unmarked) [3AA, 7-[[[1-(4-pyridinyl)ethyl]-amino]carbonyl]-3-[4-(trifluoromethyl)-phenyl]-2-quinoxaline-pentanoic acid]
2.1 to 20 | O=C(O)CCCCc1nc2cc(C(=O)N3CCC(c4ccccc4)CC3)ccc2nc1-c1ccccc1Cl [26L, 3-(2-chlorophenyl)-7-[(4-phenyl-1-piperidinyl)carbonyl]-2-quinoxalinepentanoic acid]
2.1 to 20 | O=C(O)CCCCc1nc2cc(C(=O)N3CCC(c4ccccc4)CC3)ccc2nc1-c1cccnc1 [26M, 7-[(4-phenyl-1-piperidinyl)carbonyl]-3-(3-pyridinyl)-2-quinoxalinepentanoic acid]

Same assay, conditions: [3H]PGD2 binding, values in text

Ki [nM] | SMILES
4.2 | C[C@H](NC(=O)c1ccc2nc(-c3ccccc3)c(CCCCC(=O)O)nc2c1)c1cncc2ccccc12 [compound 637, (S)-5-(7-((1-(isoquinolin-4-yl)ethyl)carbamoyl)-3-phenylquinoxalin-2-yl)pentanoic acid]

Same assay, conditions: [3H]PGD2 competition, Table B

SMILES | Ki [nM]
C[C@@H](NC(=O)c1ccc2nc(-c3ccc(F)cc3)c(CCCCC(=O)O)nc2c1)c1ccc(F)cn1 [compound 471, (R)-5-(3-(4-fluorophenyl)-7-((1-(5-fluoropyridin-2-yl)ethyl)carbamoyl)quinoxalin-2-yl)pentanoic acid] | 2.1 to 20
CC(CCCc1nc2cc(C(=O)N[C@@H]3C[C@H]3c3ccccc3)ccc2nc1-c1ccccc1)C(=O)O (stereo partly drawn) [compound 463, 2-methyl-5-(3-phenyl-7-(((1R,2S)-2-phenylcyclopropyl)carbamoyl)quinoxalin-2-yl) pentanoic acid] | 2.1 to 20
O=C(O)CCCCc1nc2cc(C(=O)NC3CCCc4cc(OCc5ccccc5)ccc43)ccc2nc1-c1ccc(Cl)cc1 (centres unmarked) [compound 311, 5-(7-((6-(benzyloxy)-1,2,3,4-tetrahydronaphthalen-1-yl)carbamoyl)-3-(4-chlorophenyl)quinoxalin-2-yl)pentanoic acid] | 2.1 to 20
O=C(N[C@@H](c1ccc(Cl)cc1)C(F)(F)F)c1ccc2nc(-c3ccc(Cl)cc3)c(CC3CCC(C(=O)O)C3)nc2c1 (stereo partly drawn) [compound 406, 3-((3-(4-chlorophenyl)-7-(((S)-1-(4-chlorophenyl)-2,2,2-trifluoroethyl)carbamoyl)quinoxalin-2-yl)methyl)cyclopentane-carboxylic acid] | 2.1 to 20
O=C(N[C@@H]1CCCc2cc(F)ccc21)c1ccc2nc(-c3ccc(F)cc3)c(CC[C@H]3C[C@@H]3C(=O)O)nc2c1 [compound 261, (1S,2S)-2-(2-(7-(((R)-6-fluoro-1,2,3,4-tetrahydronaphthalen-1-yl)carbamoyl)-3-(4-fluorophenyl)quinoxalin-2-yl)ethyl)cyclopropane-carboxylic acid] | 2.1 to 20
CC(CCCc1nc2cc(C(=O)N[C@@H]3CCc4cc(F)ccc43)ccc2nc1-c1ccc(F)cc1)C(=O)O (stereo partly drawn) [compound 457, 5-(7-(((R)-5-fluoro-2,3-dihydro-1H-inden-1-yl)carbamoyl)-3-(4-fluorophenyl)quinoxalin-2-yl)-2-methylpentanoic acid] | 0.1 to 2
O=C(O)CCCCc1nc2cc(C(=O)N3CCC4(CC3)NC(=O)Cc3ccccc34)ccc2nc1-c1ccccc1 [compound 299, 5-(7-(3-oxo-3,4-dihydro-2H-spiro[isoquinoline-1,4′-piperidin]-1′-ylcarbonyl)-3-phenylquinoxalin-2-yl)pentanoic acid] | 2.1 to 20
O=C(O)CCCCc1nc2cc(C(=O)NC3CSc4ccccc43)ccc2nc1-c1ccc(Cl)cc1 (centres unmarked) [compound 331, 5-(3-(4-chlorophenyl)-7-((2,3-dihydrobenzo[b]thiophen-3-yl)carbamoyl)quinoxalin-2-yl)pentanoic acid] | 2.1 to 20

Next, values leading:

Ki [nM] | SMILES
2.1 to 20 | O=C(O)CCCCc1nc2cc(C(=O)N3CCN(c4ccccc4)C(=O)C3)ccc2nc1-c1ccc(Cl)cc1 [compound 553, 5-(3-(4-chlorophenyl)-7-(3-oxo-4-phenylpiperazine-1-carbonyl)quinoxalin-2-yl)pentanoic acid]
0.1 to 2 | Cc1cccc(N2CCN(C(=O)c3ccc4nc(-c5ccc(Cl)cc5)c(CCCCC(=O)O)nc4c3)CC2)c1C [compound 627, 5-(3-(4-chlorophenyl)-7-(4-(2,3-dimethylphenyl)piperazine-1-carbonyl)quinoxalin-2-yl)pentanoic acid]
2.1 to 20 | C[C@H](NC(=O)c1ccc2nc(-c3ccccc3)c(CCCCC(=O)O)nc2c1)c1cncc2ccccc12 [compound 637, (S)-5-(7-((1-(isoquinolin-4-yl)ethyl)carbamoyl)-3-phenylquinoxalin-2-yl)pentanoic acid]
2.1 to 20 | O=C(O)CCCCc1nc2cc(C(=O)N3C[C@@H]4C[C@H]3CN4c3ccc(F)cc3)ccc2nc1-c1ccc(Cl)cc1 [compound 680, 5-(3-(4-chlorophenyl)-7-((1S,4S)-5-(4-fluorophenyl)-2,5-diazabicyclo[2.2.1]heptane-2-carbonyl)quinoxalin-2-yl)pentanoic acid]
20.1 to 200 | C[C@H](CCCc1nc2cc(C(=O)N[C@H]3CCCc4ccccc43)ccc2nc1-c1ccc(F)cc1)C(=O)O [compound 478, (R)-5-(3-(4-fluorophenyl)-7-(((S)-1,2,3,4-tetrahydronaphthalen-1-yl)carbamoyl)quinoxalin-2-yl)-2-methylpentanoic acid]
20.1 to 200 | O=C(O)CCCc1nc2cc(C(=O)N[C@@H]3CCCc4cc(F)ccc43)ccc2nc1-c1ccccc1 [compound 723, (R)-4-(7-((6-fluoro-1,2,3,4-tetrahydronaphthalen-1-yl)carbamoyl)-3-phenylquinoxalin-2-yl)butanoic acid]
0.1 to 2 | O=C(O)CCCCc1nc2cc(C(=O)N3CCC4(CCCc5ccccc54)C3)ccc2nc1-c1ccc(Cl)cc1 (centres unmarked) [compound 583, 5-(3-(4-chlorophenyl)-7-(3,4-dihydro-2H-spiro [naphthalene-1,3′-pyrrolidin]-1′-ylcarbonyl)quinoxalin-2-yl)pentanoic acid]
20.1 to 200 | O=C(O)CCCCc1nc2cc(C(=O)N3CCO[C@@H](c4ccc(F)cc4)C3)ccc2nc1-c1ccc(Cl)cc1 [compound 613, (S)-5-(3-(4-chlorophenyl)-7-(2-(4-fluorophenyl)morpholine-4-carbonyl)quinoxalin-2-yl)pentanoic acid]
2.1 to 20 | C[C@@H](c1ccccc1)N(C)C(=O)c1ccc2nc(-c3ccc(Cl)cc3)c(CCCCC(=O)O)nc2c1 [compound 644, (S)-5-(3-(4-chloro-phenyl)-7-(methyl(1-phenylethyl)carbamoyl)quinoxalin-2-yl) pentanoic acid]
0.1 to 2 | O=C(O)CCCCc1nc2cc(C(=O)N[C@H]3COc4ccccc43)ccc2nc1-c1ccc(Cl)cc1 [compound 580, (R)-5-(3-(4-chlorophenyl)-7-((2,3-dihydrobenzofuran-3-yl)carbamoyl)quinoxalin-2-yl)pentanoic acid]
2.1 to 20 | O=C(O)CCCCc1nc2cc(C(=O)N3CCC4(CC3)Cc3ccccc3C(=O)N4)ccc2nc1-c1ccc(Cl)cc1 [compound 568, 5-(3-(4-chlorophenyl)-7-(1-oxo-2,4-dihydro-1H-spiro[isoquinoline-3,4′-piperidin]-1′-ylcarbonyl)quinoxalin-2-yl)pentanoic acid]
